Values of other authors in US20100105139A1, “Ligand Targeted Nanocapsules for the delivery of RNAi and other Agents” (priority 2008, published 2010).

Test system: advanced stage melanoma
Conditions: melanoma patients

## COc1cccc2c1C(=O)c1c(O)c3c(c(O)c1C2=O)C[C@@](O)(C(=O)CO)C[C@@H]3O[C@H]1C[C@H](N)[C@H](O)[C@H](C)O1 [DOX, Doxorubicin]
  response rates: essentially ineffective
